Assay results taken from US12017976B1, “1-(4-carbonoimidoylphenoxy)-3-{4-[(e)-(phenylimino)methyl]phenoxy }propan-2-ol as an eco-friendly insecticidal agent against Spodoptera littoralis (boisd.)” (KING FAISAL UNIVERSITY, priority 2024, dated 2024).
In brackets after ≈: the same amount, converted by molar mass.

What was measured:
[1] = tested on: aquatic insects; conditions: highly toxic / very highly toxic classification; cited from earlier work
[2] = tested on: Spodoptera littoralis larvae (2nd and 4th instar); assay: Insecticidal leaf dip bioassay on larvae of the laboratory strain of cotton leafworm
Procedure: Five concentrations (200, 100, 50, 25, 12.5 ppm) were designed for this synthetic compound and the reference fenoxycarb's compound as the dynamic ingredients based on ppm via diluting the commercial formulation.
In this experiment, the synthetic compound was tested for its insecticidal bioactivity using the industry-standard leaf dip bioassay techniques. […] Until usage, the stocks were kept in a refrigerator. The target substance test results were noted & the concentrations needed to destroy 50% (LC50) of S. littoralis larvae were calculated. The target compound was employed in five different concentrations, & 0.1% Tween 80 was employed as a surfactant. Castor bean leaf discs (nine centimeters in diameter) were dipped in the concentration under test for ten seconds, then fed to 2th & 4th larvae, which were roughly the same size and housed in glass jars (five pound). Each action carried out 3 times with ten larvae each. The mortality equalized via Abbott's formula. […] The mortality results of larval insect were estimated through employing probit analysis through a statistics (LDP-line) equation which estimate the LC50 values with 95% fiducially limits of lower, upper confidence limit and slope.

SMILES | LC50 for aquatic insects [1] | Toxicity index %, 2nd instar larvae ([2]; 2nd instar larvae, 72 hours, fenoxycarb's LC50 / compound's LC50) | Toxicity index %, 4th instar larvae ([2]; 4th instar larvae, 72 hours, fenoxycarb's LC50 / compound's LC50) | LC50 ([2]; Spodoptera littoralis, in Gossypium hirsutum, foliar, read-out: LC50 against Spodoptera littoralis)
CCc1ccc(C(=O)NN(C(=O)c2cc(C)cc(C)c2)C(C)(C)C)cc1 [tebufenozide] | 100 to 1000 µg/mL | – | – | –
CCOC(=O)NCCOc1ccc(Oc2ccccc2)cc1 [fenoxycarb] | – | 100% | 100% | 5.94 µg/mL (≈ 19.7 µM)
